Assay results as given in patent US12054497B2, “Substituted heterocyclic fused cyclic compound, preparation method therefor and pharmaceutical use thereof” (GENFLEET THERAPEUTICS (SHANGHAI) INC., priority 2019, dated 2024).
Read-outs that look alike come from different tables or passages of the source.

What was measured:
[1] = tested on: subcutaneous xenograft tumor model of MIA PaCa-2; assay: In vivo pharmacodynamic experiment, tumor growth inhibition (Test Example 5); set-up: species or system BALB/c nude mice; conditions: p.o., QD; for TGI: day 14
Procedure: Experimental objective: to evaluate the in vivo pharmaceutical effects of tested compounds on the subcutaneous xenograft tumor model of MIA PaCa-2.
Experimental operation: 6 to 8 weeks old female BALB/c nude mice each having the body weight of 18-20 g were chosen. MIA PaCa-2 cells were cultured in DMEM containing 10% FBS, 2.5% HS and 1% penicillin-streptomycin at 37° C. in an incubator with 5% CO2. Cells were collected. The MIA PaCa-2 cells were subcutaneously inoculated to the animals at their backs on the right, 2.0×10^6 cells (0.1 mL) for each animal. When tumor grew to 190-311 mm^3, mice with tumor having a suitable size were chosen and treated in groups, with administration dosages shown in Table 5 below. The animals were weighed on an electronic balance each day. The tumor volume was investigated by using a vernier caliper twice a week. The tumor volume was calculated by the following equation: V=0.5 a×b^2, a and b representing the long diameter and the short diameter of the tumor, respectively. The tumor volume was used to calculate a tumor growth inhibition rate (TGI), and the TGI shown in the form of a percentage was used to indicate the antineoplastic activity of a compound. The TGI was calculated by the following equation: TGI (%)=[1−avTi−0/avCi−0)]×100, with avTi−0 representing the average tumor volume of the group administrated with the compound on a specific day minus the average tumor volume of this group on the day of grouping, and avCi−0 representing the average tumor volume of the solvent control group on a specific day minus the average tumor volume of the solvent control group on the day of grouping. The tumor volume was shown in the form of an average value±standard error of mean (SEM).

[2] = Pharmacokinetic evaluation on mice, intravenous administration (Test Example 6); format: in vivo; conditions: male CD-1 mice, IV 2 mg/kg
Procedure: (§1) Experimental objective: male CD-1 mice were chosen as tested animals, and the LC-MS-MS method was employed to measure the concentrations of a tested compound in blood plasma of a mouse intravenously and intragastrically administrated with the tested compound at different times. The pharmacokinetic behaviors of tested compounds in mice were studied, and the pharmacokinetic characteristics thereof were evaluated.
(§2) Experimental scheme: experimental animals: 18 healthy adult male CD-1 mice (6 to 8 weeks old, and body weight about 30 g) were divided into 6 groups according to the principle of similar body weights: 3 mice in each of IV groups (3 groups), and 3 mice in each of PO groups (3 groups). The animals were purchased from Shanghai Jihui Laboratory Animal Care Co., Ltd.
(§3) Formulation: IV group: taking 10 mL of sample solution for example, 4 mg of sample was weighed, orderly added with 0.5 mL of DMSO and […], then added with […] of HP-p-CD, finally added with water to a constant volume of 10 mL, and stirred and subjected to ultrasonic irradiation, thereby obtaining a 0.4 mg/mL clear solution. PO group: an appropriate amount of sample was weighed, orderly added with appropriate amounts of Labrasol and water in a volume ratio of 10:40, and stirred and subjected to ultrasonic irradiation, thereby obtaining a 1.5 mg/mL uniform solution.
(§4) Administration: after being deprived of food for one night, the IV groups were intravenously administrated with the formulated solutions, respectively, with an injection volume of 5 mL/kg and a dosage of 2 mg/kg. The PO groups were intragastrically administrated with the formulated solutions, respectively, with an injection volume of […] and a dosage of 15 mg/kg.
(§5) Experimental operations: after the intravenous injection groups and the intragastric administration groups of the male CD-1 mice were administrated with the tested compounds, 110 ul of blood was sampled at the following time points: 0.0833, 0.25, 0.5, 1, 2, 4, 6, 8, and 24 hours. The sampled blood was placed into an anticoagulant tube which was added with K2EDTA in advance and preserved in dry ice. The tube was centrifuged for 15 minutes to separate blood plasma, and the separated blood plasma was preserved at −70° C. The animals were allowed to be fed after 4 hours of administration. The LC-MS-MS method was employed to measure the concentration of the tested compounds in the blood plasma after the intravenous and intragastric administration to the mice. The linear range of the method was 1-3000 ng/ml. The blood plasma samples were analyzed after protein precipitation with ACN.

[3] = Pharmacokinetic evaluation on mice, intragastric (PO) administration (Test Example 6); format: in vivo; conditions: PO 15 mg/kg, male CD-1 mice
Procedure: as §1, §2, §3, §4, §5

[4] = tested on: MIA PaCa-2 cells with Kras G12C mutation; assay: Cell proliferation inhibition experiment, 3D spheroid, CellTiter-Glo (Test Example 3); format: cell-based, human; conditions: Homo sapiens, MIA PaCa-2, 120 h, 5 days, read-out: MIA-PaCa2 IC50
Procedure, shortened: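 MIA PaCa-2 spheroids (200 cells/well) were formed overnight, then exposed for 5 days to compounds in 3.16-fold dilutions at 0.1% DMSO. Viability was read by CellTiter-Glo luminescence, and inhibition was normalised to DMSO control and medium blank. IC50 came from a four-parameter fit.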

[5] = tested on: A549 cells with Kras G12S mutation; assay: Cell proliferation inhibition experiment, 3D spheroid, CellTiter-Glo (Test Example 1); format: cell-based, human; conditions: Homo sapiens, A549, 120 h, 5 days
Procedure, shortened: (§6)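 NCI-H358 (800 cells/well) and A549 (400 cells/well) grown overnight as 3D spheroids in 2% FBS medium, then exposed to compound dilution series (3.16-fold, 0.1% DMSO) for 5 days. CellTiter-Glo luminescence read; inhibition relative to DMSO and blank, IC50 by four-parameter fit.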

[6] = tested on: NCI-H358 cells with Kras G12C mutation; assay: as above; format: cell-based, human; conditions: 5 days
Procedure, shortened: as §6

[7] = tested on: phosphorylated ERK in MIA PaCa2 cells with Kras G12C mutation; assay: p-ERK HTRF assay for cells (Test Example 2); format: cell-based, human; conditions: MIA PaCa2 cells, 2 hours with compound, read-out: p-ERK IC50
Procedure, shortened: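 MIA PaCa2 cells (2.5E4/well, seeded overnight) treated 2 h with compound in a 3.16-fold series at 0.1% DMSO. Cells lysed 30 min; p-ERK read by HTRF after 4 h antibody incubation. Inhibition relative to DMSO and blank; IC50 by four-parameter fit.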

KRas G12C = KRas G12C (Homo sapiens (Human), UniProt P01116, G12C); assay: Nucleotide exchange assay (NEA)-HTRF, SOS1 catalyzed displacement of GDP by GTP (Test Example 4); format: biochemical
Procedure: The effects of compounds on SOS1 catalyzed displacement of GDP by GTP on KRas proteins was examined by homogeneous time-resolved fluorescence (HTRF). 30 μM 6×his labeled KRas G12C recombinant protein and 80 μM fluorochrome DY647 labeled GDP were co-incubated in a labeling buffer (1 mM DTT, 7.5 mM EDTA, 25 mM Tris-HCl, 45 mM NaCl) at 20° C. away from light for 2 hours. Protein quantification was performed after purification on the NAP-5 column to determine the concentration of KRas G12C-GDP.
1000× stock solutions of compounds at a concentration gradient of 3.16 were prepared by using DMSO, and diluted 250 times by a reaction buffer (40 mM N-2-hydroxyethylpiperazine-N-2-ethane sulfonic acid (HEPES), 10 mM MgCl2, 1 mM DTT, 0.002% Triton X-100) into 4× stock solutions of compounds. KRas G12C-GDP/Tb working solution (40 nM KRas G12C-GDP, 1×anti-his Tb) and SOS1/GTP working solution (0.2 μM SOS1, 200 μM GTP) were prepared by using the reaction buffer.
5 μl of 4×stock solution of a compound and 10 μl of KRas G12C-GDP/T working solution were added to each well of 96-well plate with white unclear bottom, and 5 μl of reaction buffer was added to the well of control group in stead of the 4×stock solution of a compound. After incubation at 20° C. away from light for 15 minutes, 5 μl of SOS1/GTP working solution was added and incubated at 20° C. away from light for 2 hours, and then a value of fluorescence intensity was read (excitation wavelength: 320 nm, and emission wavelengths: 615 nm and 665 nm). Besides, group TO was established with 10 μl of the reaction buffer and 10 μl of the KRas G12C-GDP/Tb working solution, and the value of fluorescence intensity was directly read. A relative light unit (RLU) was calculated by the following equation: RLU=(665 nm signal/615 nm signal)×10^4; and the inhibition rate (IR) of the compound was calculated by the following equation: IR (%)=(RLUcompound−RLUcontrol)/(RLUT0−RLUcontrol)×100%. The value of IC50 was calculated by fitting a gradiently diluted concentration of the compound and the corresponding cell proliferation inhibition rate using a four-parameter method.

KRas G12C, sequence (P01116-2 other isoform, or with tags, fused parts or gaps G12C): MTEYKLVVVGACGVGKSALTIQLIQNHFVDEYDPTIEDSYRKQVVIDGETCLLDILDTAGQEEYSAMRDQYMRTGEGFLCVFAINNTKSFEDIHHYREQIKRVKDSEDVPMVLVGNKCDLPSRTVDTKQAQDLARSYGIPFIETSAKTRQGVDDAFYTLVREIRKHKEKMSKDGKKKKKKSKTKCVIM

Compound	IC50 [4] [nM]	IC50 [5] [nM]	IC50 [6] [nM]	IC50 ([7]; Homo sapiens, MIA PaCa-2, 2 h) [nM]	IC50 (KRas G12C) [nM]	IC50 ([6]; Homo sapiens, NCI-H358, 120 h) [nM]	further results
C=CC(=O)N1CCN(c2nc(=O)n(-c3c(C)ccnc3C(C)C)c3nc(-c4c(O)cccc4F)c(F)cc23)[C@@H](C)C1 [AMG 510, reference compound]	–	–	–	–	–	–	Tumor Volume on Day 14 after Administration ([1]; 1 mg/kg): 314.28 mm^3; TGI ([1]; 1 mg/kg): 82.8%; Tumor Volume on Day 14 after Administration ([1]; 3 mg/kg): 205.35 mm^3; TGI ([1]; 3 mg/kg): 109.1%; Tumor Volume on Day 14 after Administration ([1]; 10 mg/kg): 81.72 mm^3; TGI ([1]; 10 mg/kg): 138.9%; Cl (clearance rate) [2]: 73.2 mL/min/kg; T1/2 (half-life) [2]: 19.1 min; Vd (volume of distribution) [2]: 1.15 L/kg; F (bioavailability) [3]: 36.10%; Cmax ([3]; plasma): 1221 ng/mL; Tmax ([3]; plasma): 60 min
C=CC(=O)N1CCN2c3c(c(=O)n(-c4c(C)ccnc4C(C)C)c4nc(-c5c(O)cccc5F)c(F)cc34)N(CC)C(=O)[C@H]2C1 [Compound Z30, (4aR)-3-acryloyl-6-ethyl-11-fluoro-10-(2-fluoro-6-hydroxyphenyl)-8-(2-isopropyl-4-methylpyridin-3-yl)-2,3,4,4a,6,8-hexahydro-1H-pyrazino[1′,2′:4,5]pyrazino[2,3-c][1,8]naphthyridin-5,7-dione]	140	> 30000	51	676	656	–	–
C=CC(=O)N1C[C@@H]2C(=O)N(C)c3c(c4cc(C5CC5)c(-c5c(O)cccc5F)nc4n(-c4c(C)ccnc4C(C)C)c3=O)N2C[C@H]1C [Compound Z31, (2R,4aR)-3-acryloyl-11-cyclopropyl-10-(2-fluoro-6-hydroxyphenyl)-8-(2-isopropyl-4-methylpyridin-3-yl)-2,6-dimethyl-2,3,4,4a,6,8-hexahydro-1H-pyrazino[1′,2′:4,5]pyrazino[2,3-c][1,8]naphthyridin-5,7-dione]	59	9490	–	206	151	17	–
C=CC(=O)N1C[C@@H]2C(=O)Nc3c(c4cc(F)c(-c5c(O)cccc5F)nc4n(-c4c(C)ccnc4C(C)C)c3=O)N2C[C@H]1C [Compound Z35, (2R,4aR)-3-acryloyl-11-fluoro-10-(2-fluoro-6-hydroxyphenyl)-8-(2-isopropyl-4-methylpyridin-3-yl)-2-methyl-2,3,4,4a,6,8-hexahydro-1H-pyrazino[1′, 2′:4]pyrazino[2,3,3-c][1,8,8]naphthyridin-5-dione]	15	28200	6	–	73	–	IC50 [7]: 83 nM
C=CC(=O)N1CCN2c3c(c(=O)n(-c4c(C(C)C)ccnc4C(C)C)c4c(F)c(-c5c(O)cccc5F)c(Cl)cc34)N(C)C(=O)[C@H]2C1 [Compound Z37]	4	8570	–	21	20	1	–
C=CC(=O)N1C[C@@H]2C(=O)N(C)c3c(c4cc(Cl)c(-c5c(O)cccc5F)c(F)c4n(-c4c(C(C)C)ncnc4C(C)C)c3=O)N2C[C@H]1C [Compound Z50]	2	28300	–	7	19	0.5	–
